Each structure is given as a SMILES string.

T1 sequence (P15056 whole entry V600E): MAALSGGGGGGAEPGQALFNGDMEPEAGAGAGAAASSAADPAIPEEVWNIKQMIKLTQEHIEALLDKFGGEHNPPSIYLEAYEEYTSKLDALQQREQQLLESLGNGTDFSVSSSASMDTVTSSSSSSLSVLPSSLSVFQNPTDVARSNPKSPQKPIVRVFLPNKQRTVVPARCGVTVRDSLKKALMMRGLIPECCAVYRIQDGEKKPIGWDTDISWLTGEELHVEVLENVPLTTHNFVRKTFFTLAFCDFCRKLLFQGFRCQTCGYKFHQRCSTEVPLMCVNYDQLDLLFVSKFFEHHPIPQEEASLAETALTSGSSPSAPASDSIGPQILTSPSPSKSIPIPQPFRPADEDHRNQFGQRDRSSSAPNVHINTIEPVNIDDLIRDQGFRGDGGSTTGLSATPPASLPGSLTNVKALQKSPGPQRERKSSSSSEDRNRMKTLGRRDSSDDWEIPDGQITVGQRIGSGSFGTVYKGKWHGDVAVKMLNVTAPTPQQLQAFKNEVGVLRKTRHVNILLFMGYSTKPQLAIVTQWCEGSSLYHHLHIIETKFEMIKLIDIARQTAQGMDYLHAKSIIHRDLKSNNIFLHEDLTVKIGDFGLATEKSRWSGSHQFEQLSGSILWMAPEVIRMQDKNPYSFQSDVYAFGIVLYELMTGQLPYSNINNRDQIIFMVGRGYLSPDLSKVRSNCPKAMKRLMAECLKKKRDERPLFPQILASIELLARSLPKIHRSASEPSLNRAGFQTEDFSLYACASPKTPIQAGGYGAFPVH

The first assay addresses T1, mutant B-RAF (Homo sapiens, UniProt P15056, V600E).
T1 construct: purchased Upstate (Charlottesville, Va.)
Nature of the assay: RAF biochemical assay (MEK-1 phosphorylation, anti-phospho MEK1/2 detection).
Details: not given
The gist of the method: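 Detection is by ELISA: after a 30 min room-temperature reaction, plate-captured GST-MEK-1 is probed with anti-phospho MEK1/2, then an AP-tagged secondary antibody with fluorescent Attophos read-out.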
As a reminder, the IC50 is the concentration needed to halve the response being measured. `CC(C)(N)C(=O)N1CCC(Nc2nccc(-c3c(-c4ccc(F)cc4)nc4occn34)n2)CC1` [Example 191, N-[1-(2-amino-2-methylpropanoyl)piperidin-4-yl]-4-[6-(4-fluorophenyl)imi-dazo[2,1-b][1,3]oxazol-5-yl]pyrimidin-2-amine]: the IC50 amounted to 3760 nM.

Still in this assay, the particulars now being: @ 10 uM; read-out: Mutant B-RAF % inhibition.
Broadly, the inhibition is the percentage by which the read-out fell short of the control. Consider `CC(=O)Nc1nc(C)c(S(=O)(=O)N2CCC(Nc3nccc(-c4c(-c5ccc(F)cc5)nc5occn45)n3)CC2)s1` [Example 228, N-(5-{(4-({4-[6-(4-fluorophenyl)imidazo[2,1-b][1,3]oxazol-5-yl]pyrimidin-2-yl}amino)piperidin-1-yl]sulfonyl}-4-methyl-1,3-thiazol-2-yl)acetamide], for which the inhibition at 10 µM came out at 40%.
On to `CC(=O)N1CCC(Nc2nccc(-c3c(-c4ccc(F)cc4)nc4sccn34)n2)CC1` [Example 291, N-(1-acetylpiperidin-4-yl)-4-[6-(4-fluorophenyl)imidazo[2,1-b][1,3]thiazol-5-yl]pyrimidin-2-amine], for which the inhibition at 10 µM is 41%.
`COc1ccc(Cl)cc1S(=O)(=O)N1CCC[C@@H](Nc2nccc(-c3c(-c4ccc(F)cc4)nc4occn34)n2)C1` [Example 61, N-{(3R)-1-[(5-chloro-2-methoxyphenyl)sulfonyl]piperidin-3-yl}-4-[6-(4-fluorophenyl)imidazo[2,1-b][1,3]oxazol-5-yl]pyrimidin-2-amine]: the inhibition at 10 µM stood at 37%.
The same measure, in the same setting: next, `CS(=O)(=O)N1CCC(Nc2nccc(-c3c(-c4ccc(F)cc4Cl)nc4occn34)n2)CC1` [Example 312, 4-[6-(2-chloro-4-fluorophenyl)imidazo[2,1-b][1,3]oxazol-5-yl]-N-[1-(methylsulfonyl)piperidin-4-yl]pyrimidin-2-amine]: 73%; `Fc1ccc(-c2nc3sccn3c2-c2ccnc(N[C@H]3CCNC3)n2)cc1` [Example 275, 4-[6-(4-fluorophenyl)imidazo[2,1-b][1,3]thiazol-5-yl]-N-[(3S)-pyrrolidin-3-yl]pyrimidin-2-amine]: 30%; `Clc1ccccc1-c1nc2occn2c1-c1ccnc(NC2CCNCC2)n1` [Example 307, 4-[6-(2-chlorophenyl)imidazo[2,1-b][1,3]oxazol-5-yl]-N-piperidin-4-ylpyrimidin-2-amine]: 55%.
For the molecule `CN(C)c1ccc(C(=O)N2CCC(Nc3nccc(-c4c(-c5ccc(F)cc5)nc5occn45)n3)CC2)cc1` [Example 222, N-{1-[4-(dimethylamino)benzoyl]piperidin-4-yl}-4-[6-(4-fluorophenyl)imidazo[2,1-b][1,3]oxazol-5-yl]pyrimidin-2-amine], the inhibition at 10 µM worked out at 45%.

Staying with this assay, now noted: read-out: Mutant B-RAF % inhibition.
Consider `O=C(N1CCOCC1)N1CCC[C@@H](Nc2nccc(-c3c(-c4ccc(F)cc4)nc4occn34)n2)C1` [Example 41, 4-[6-(4-fluorophenyl)imi-dazo[2,1-b][1,3]oxazol-5-yl]-N-[(3R)-1-(morpholin-4-ylcarbonyl)piperidin-3-yl]pyrimidin-2-amine], for which the inhibition at 10 µM was found to be 38%.
`COc1cccc(-c2nc3sccn3c2-c2ccnc(N[C@@H]3CCCN(C(=O)NCc4ccco4)C3)n2)c1` [Example 81, (3R)-N-(2-furylmethyl)-3-({4-[6-(3-methoxyphenyl)imi-dazo[2,1-b][1,3]thiazol-5-yl]pyrimidin-2-yl}amino)piperidine-1-carboxamide]: the inhibition at 10 µM turned out to be 50%.

Still in this assay, the particulars now being: read-out: Mutant B-RAF IC50.
For the molecule `O=S(=O)(c1ccc(F)cc1)N1CCCC(Nc2nccc(-c3c(-c4ccc(F)cc4)nc4sccn34)n2)C1` (centres unmarked) [Example 2, 4-[6-(4-fluorophenyl)imidazo[2,1-b][1,3]thiazol-5-yl]-N-{1-[(4-fluorophenyl)sulfonyl]piperidin-3-yl}pyrimidin-2-amine], the IC50 came to 458 nM.
The same measure, in the same setting: next, `O=C(c1ccc(F)cc1)N1CCC[C@@H](Nc2nccc(-c3c(-c4cccc(O)c4)nc4sccn34)n2)C1` [Example 113, 3-[5-(2-{[(3R)-1-(4-fluorobenzoyl)piperidin-3-yl]amino}pyrimidin-4-yl)imidazo[2,1-b][1,3]thiazol-6-yl}phenol]: 3840 nM; `O=S(=O)(C1CC1)N1CCC(Nc2nccc(-c3c(-c4cccc(O)c4)nc4occn34)n2)CC1` [Example 339, 3-[5-(2-{[1-(cyclopropylsulfonyl)piperidin-4-yl]amino}pyrimidin-4-yl)imidazo[2,1-b][1,3]oxazol-6-yl]phenol]: 46 nM; `Cc1cn2c(-c3ccnc(N[C@@H]4CCCN(S(=O)(=O)c5ccc(F)cc5)C4)n3)c(-c3ccc(F)cc3)nc2s1` [Example 91, 4-[6-(4-fluorophenyl)-2-methylimidazo[2,1-b][1,3]thiazol-5-yl]-N-{(3R)-1-[(4-fluorophenyl)sulfonyl]piper-idin-3-yl}pyrimidin-2-amine]: 352 nM.
The same measure, in the same setting: the value for `O=C(CCc1ccccc1)N1CCC(Nc2nccc(-c3c(-c4ccc(F)cc4)nc4occn34)n2)CC1` [Example 189, 4-[6-(4-fluorophenyl)imidazo[2,1-b][1,3]oxazol-5-yl]-N-[1-(3-phenylpropanoyl)piperidin-4-yl]pyrimidin-2-amine] was 1940 nM; that for `N#Cc1ccc(-c2nc3sccn3c2-c2ccnc(N[C@@H]3CCCN(S(=O)(=O)c4ccc(Cl)cc4)C3)n2)cc1` [Example 360, 4-{5-[2-({(3R)-1-[(4-chlorophenyl)sulfonyl]piperidin-3-yl}amino)pyrimidin-4-yl]imidazo[2,1-b][1,3]thiazol-6-yl}benzonitrile] was 2470 nM.
As to `O=C(O)c1ccc(-c2nc3sccn3c2-c2ccnc(N[C@@H]3CCCN(S(=O)(=O)c4ccc(Cl)cc4)C3)n2)cc1O` [Example 133, 4-{5-[2-({(3R)-1-[(4-chlorophenyl)sulfonyl]piperidin-3-yl}amino)pyrimidin-4-yl]imidazo[2,1-b][1,3]thiazol-6-yl}-2-hydroxybenzoic acid], the concentration for half-maximal inhibition (IC50) amounted to 840 nM.
On the same count and under the same terms, the value for `CCNC(=O)N1CCC(Nc2nccc(-c3c(-c4ccc(F)cc4)nc4occn34)n2)CC1` [Example 156, N-ethyl-4-({4-[6-(4-fluorophenyl)imidazo[2,1-b][1,3]oxazol-5-yl]pyrimidin-2-yl}amino)piperidine-1-carboxamide] was 428 nM.
Still for that read-out and setting: the value for `O=S(=O)(c1cc(Cl)cc(Cl)c1)N1CCC(Nc2nccc(-c3c(-c4ccc(F)cc4)nc4occn34)n2)CC1` [Example 205, N-{1-[(3,5-dichlorophenyl)sulfonyl]piperidin-4-yl}-4-[6-(4-fluorophenyl)imidazo[2,1-b][1,3]oxazol-5-yl]pyrimidin-2-amine] was 981 nM; that for `COc1cccc(-c2nc3sccn3c2-c2ccnc(NC3CCN(S(=O)(=O)c4ccc(F)cc4)CC3)n2)c1` [Example 214, N-{1-[(4-fluorophenyl)sulfonyl]piperidin-4-yl}-4-[6-(3-methoxyphenyl)imidazo[2,1-b][1,3]thiazol-5-yl]pyrimidin-2-amine] was 392 nM; that for `COc1ccc(-c2nc3sccn3c2-c2ccnc(NC3CCN(S(=O)(=O)c4ccc(Cl)cc4)CC3)n2)cc1` [Example 262, N-{1-[(4-chlorophenyl)sulfonyl]piperidin-4-yl}-4-[6-(4-methoxyphenyl)imidazo[2,1-b][1,3]thiazol-5-yl]pyrimidin-2-amine] was over 3000 nM.
On to `O=C(c1ccccc1)N1CCC(Nc2nccc(-c3c(-c4ccc(F)cc4)nc4occn34)n2)CC1` [Example 159, N-(1-benzoylpiperidin-4-yl)-4-[6-(4-fluorophenyl)imidazo[2,1-b][1,3]oxazol-5-yl]pyrimidin-2-amine], for which the concentration for half-maximal inhibition (IC50) was 1010 nM.
Consider `O=C(Nc1ccccc1)N1CCC(Nc2nccc(-c3c(-c4ccc(F)cc4)nc4occn34)n2)CC1` [Example 171, 4-({4-[6-(4-fluorophenyl)imidazo[2,1-b][1,3]oxazol-5-yl]pyrimidin-2-yl}amino)-N-phenylpiperidine-1-carboxamide], for which the IC50 was 4730 nM.
The same measure, in the same setting: next, `O=S(=O)(c1ccsc1)N1CCC[C@@H](Nc2nccc(-c3c(-c4cccc(O)c4)nc4sccn34)n2)C1` [Example 367, 3-[5-(2-{[(3R)-1-(3-thienylsulfonyl)piperidin-3-yl]amino}pyrimidin-4-yl)imidazo[2,1-b][1,3]thiazol-6-yl]phenol]: 3 nM; `COC(=O)c1ccc(S(=O)(=O)N2CCC[C@@H](Nc3nccc(-c4c(-c5cccc(O)c5)nc5sccn45)n3)C2)cc1` [Example 314, methyl 4-{[(3R)-3-({4-[6-(3-hydroxyphenyl)imidazo[2,1-b][1,3]thiazol-5-yl]pyrimidin-2-yl}amino)piperidin-1-yl]sulfonyl}benzoate]: 30 nM.
The same measure, in the same setting: the value for `O=C(OC[C@H](O)CO)c1ccc(S(=O)(=O)N2CCC[C@@H](Nc3nccc(-c4c(-c5cccc(O)c5)nc5sccn45)n3)C2)cc1` [Example 341, (2R)-2,3-dihydroxypropyl 4-{[(3R)-3-({4-[6-(3-hydroxyphenyl)imidazo[2,1-b][1,3]thiazol-5-yl]pyrimidin-2-yl}amino)piperidin-1-yl]sulfonyl}benzoate] was 33 nM; that for `O=S(=O)(c1ccc(F)cc1)N1CCC(Nc2nccc(-c3c(-c4ccc(F)cc4)nc4sccn34)n2)CC1` [Example 153, 4-[6-(4-fiuorophenyl)imidazo[2,1-b][1,3]thiazol-5-yl]-N-{1-[(4-fluorophenyl)sulfonyl]piperidin-4-yl}pyrimidin-2-amine] was 78 nM; that for `O=C(NC1CCCC1)N1CCC(Nc2nccc(-c3c(-c4cccc(O)c4)nc4sccn34)n2)CC1` [Example 356, N-cyclopentyl-4-({4-[6-(3-hydroxyphenyl)imidazo[2,1-b][1,3]thiazol-5-yl]pyrimidin-2-yl}amino)piperidine-1-carboxamide] was 2540 nM.
As to `Cc1cn2c(-c3ccnc(N[C@@H]4CCCN(C(=O)Nc5ccc(N(C)C)cc5)C4)n3)c(-c3ccc(F)cc3)nc2s1` [Example 94, (3R)-N-[4-(dimethyl-amino)phenyl]-3-({4-[6-(4-fluorophenyl)-2-methylimidazo[2,1-b][1,3]thiazol-5-yl]pyrimidin-2-yl}amino)piperidine-1-carboxamide], the half-maximal inhibitory concentration (IC50) is over 3000 nM.

The values above are taken from patent publication US7501430B2 (ArQule, Inc., priority 2006, dated 2009).
